Laboratory results published in patent US12478605B2, “Biochanin a derivatives for treatment of BEST1-related retinopathies” (Universität Regensburg, priority 2020, dated 2025).

Target: T1, BEST-Y227N (Homo sapiens, UniProt O76090, Y227N)
T1 construct: expressed in transfected cells
T1 sequence (O76090 1-585 Y227N): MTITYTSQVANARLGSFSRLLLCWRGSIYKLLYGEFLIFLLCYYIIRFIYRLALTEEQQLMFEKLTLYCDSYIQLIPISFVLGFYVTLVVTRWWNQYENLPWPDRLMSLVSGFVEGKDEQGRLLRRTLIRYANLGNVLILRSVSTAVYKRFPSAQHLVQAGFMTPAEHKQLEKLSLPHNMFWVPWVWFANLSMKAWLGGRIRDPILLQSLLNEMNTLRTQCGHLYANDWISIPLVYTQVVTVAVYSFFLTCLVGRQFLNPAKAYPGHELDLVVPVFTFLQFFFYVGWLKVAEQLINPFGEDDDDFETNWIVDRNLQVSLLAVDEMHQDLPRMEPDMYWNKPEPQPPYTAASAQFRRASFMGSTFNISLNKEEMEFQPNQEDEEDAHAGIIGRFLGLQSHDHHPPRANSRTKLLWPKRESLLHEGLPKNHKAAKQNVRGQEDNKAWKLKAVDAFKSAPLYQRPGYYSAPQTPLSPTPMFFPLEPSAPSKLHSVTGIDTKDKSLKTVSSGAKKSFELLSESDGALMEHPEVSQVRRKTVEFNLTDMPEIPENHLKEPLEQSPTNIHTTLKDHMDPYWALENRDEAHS
Test: YFP-halide transport assay (I- influx), MDCKII cells expressing mutant BEST-Y227N
Assay type: cell-based
Conditions: various concentrations from 2 μM to 20 μM, 24 h, FIG. 4C

anion transport activity (I- influx): moderately increased
SMILES: COc1ccc(-c2coc3cc(OC(C)=O)cc(OC(C)=O)c3c2=O)cc1 [Biochanin A diacetate, 3-(4-Methoxyphenyl)-4oxo-4H-chromene-5,7-diyl diacetate]
